We go through seven compounds from patent publication US20170210751A1, “PRMT5 INHIBITORS AND USES THEREOF” (Epizyme, Inc., priority 2014, published 2017).

Bounds are passed on as bounds.

One may read the IC50 as the midpoint of a concentration-inhibition curve. The EC50 is the concentration giving half of the maximal effect.

Assay [1] concerns the target T1, PRMT5/MEP50 (Homo sapiens, UniProt O14744).
T1 construct: Flag-PRMT5; made in house; host or cells: Spodoptera frugiperda (SF9) insect cells, baculovirus (pDEST8)
The assay is described as follows: PRMT5 Biochemical Assay (PRMT5/MEP50 enzyme assay on peptide substrate, 3H-SAM Flashplate). To be noted: PRMT5/MEP50 4 nM, 3H-SAM 75 nM, peptide 40 nM, 30 min preincubation at 25 degrees Celsius. From the text: S-adenosylmethionine (SAM), S-adenosylhomocysteine (SAH), bicine, KCl, Tween20, dimethylsulfoxide (DMSO), bovine skin gelatin (BSG), and Tris(2-carboxyethyl)phosphine hydrochloride solution (TCEP) were purchased from Sigma-Aldrich at the highest level of purity possible. ^3H-SAM was purchase from American Radiolabeled Chemicals with a specific activity of 80 Ci/mmol. 384-well streptavidin Flashplates were purchased from PerkinElmer.
Peptide representative of human histone H4 residues 1-15 was synthesized with a C-terminal linker-affinity tag motif and a C-terminal amide cap by 21st Century Biochemicals. The peptide was high high-performance liquid chromatography (HPLC) purified to greater than 95% purity and confirmed by liquid chromatography mass spectrometry (LC-MS). The sequence was Ac-[…][K-Biot]-amide (SEQ ID NO.:3).
Full-length human PRMT5 (NM_006109.3) transcript variant 1 clone was amplified from a fetal brain cDNA library, incorporating flanking 5′ sequence encoding a FLAG tag ([…]) (SEQ ID NO.:4) fused directly to Ala 2 of PRMT5. Full-length human MEP50 (NM_024102) clone was amplified from a human testis cDNA library incorporating a 5′ sequence encoding a 6-histidine tag (MHHHHHH) (SEQ ID NO.:5) fused directly to Arg 2 of MEP50. The amplified genes were sublconed into pENTR/D/TEV (Life Technologies) and subsequently transferred by Gateway™ attL×attR recombination to pDEST8 baculvirus expression vector (Life Technologies).
Recombinant baculovirus and Baculovirus-Infected Insect Cells (BIIC) were generated according to Bac-to-Bac kit instructions (Life Technologies) and Wasilko, 2006, respectively. Protein over-expression was accomplished by infecting exponentially growing Spodoptera frugiperda (SF9) cell culture at 1.2×10^6 cell/ml with a 5000 fold dilution of BIIC stock. Infections were carried out at 27° C. for 72 hours, harvested by centrifugation, and stored at −80° C. for purification.
Flag-PRMT5/6His-MeP50 was eluted with 300 mM Imidazole in the same buffer. The purity of recovered protein was 87%. Reference: Wasilko, D. J. and S. E. Lee: “TIPS: titerless infected-cells preservation and scale-up” Bioprocess J., 5 (2006), pp. 29-32.
General Procedure for PRMT5/MEP50 Enzyme Assays on Peptide Substrates.
The assays were all performed in a buffer consisting of 20 mM Bicine (pH=7.6), 1 mM TCEP, 0.005% BSG, and 0.002% Tween20, prepared on the day of use. Compounds in 100% DMSO (1 ul) were spotted into a polypropylene 384-well V-bottom plates (Greiner) using a Platemate Plus outfitted with a 384-channel head (Thermo Scientific). DMSO (1 ul) was added to Columns 11, 12, 23, 24, rows A-H for the maximum signal control and 1 ul of SAH, a known product and inhibitor of PRMT5/MEP50, was added to columns 11, 12, 23, 24, rows I-P for the minimum signal control. A cocktail (40 ul) containing the PRMT5/MEP50 enzyme and the peptide was added by Multidrop Combi (Thermo-Fisher). The compounds were allowed to incubate with PRMT5/MEP50 for 30 min at 25 degrees Celsius, then a cocktail (10 ul) containing ^3H-SAM was added to initiate the reaction (final volume=51 ul). The final concentrations of the components were as follows: PRMT5/MEP50 was 4 nM, ^3H-SAM was 75 nM, peptide was 40 nM, SAH in the minimum signal control wells was 100 uM, and the DMSO concentration was 1%. The assays were stopped by the addition of non-radioactive SAM (10 ul) to a final concentration of 600 uM, which dilutes the ^3H-SAM to a level where its incorporation into the peptide substrate is no longer detectable. 50 ul of the reaction in the 384-well polypropylene plate was then transferred to a 384-well Flashplate and the biotinylated peptides were allowed to bind to the streptavidin surface for at least 1 hour before being washed three times with 0.1% Tween20 in a Biotek ELx405 plate washer. […]

Assay [2] relates to Symmetric di-Methyl Arginine in Z-138 cells. Briefly: Z-138 Methylation Assay (In Cell Western for symmetric di-methyl arginine). It counts as cell-based. The settings on record: Homo sapiens, 96 hours incubation, symmetric di-methyl arginine normalised to DNA content, read-out: ICW EC50. From the text:
Z-138 suspension cells were purchased from ATCC (American Type Culture Collection, Manassas, Va.). RPMI/Glutamax medium, penicillin-streptomycin, heat inactivated fetal bovine serum, and D-PBS were purchased from Life Technologies, Grand Island, N.Y., USA. Odyssey blocking buffer, 800CW goat anti-rabbit IgG (H+L) antibody, and Licor Odyssey infrared scanner were purchased from Licor Biosciences, Lincoln, Nebr., USA. Symmetric di-methyl arginine antibody was purchased from EMD Millipore, Billerica, Mass., USA. 16% Paraformaldehyde was purchased from Electron Microscopy Sciences, Hatfield, Pa., USA.
Z-138 suspension cells were maintained in growth medium (RPMI 1640 supplemented with 10% v/v heat inactivated fetal bovine serum and 100 units/mL penicillin-streptomycin) and cultured at 37° C. under 5% CO2.
Cell Treatment, In Cell Western (ICW) for detection of Symmetric di-Methyl Arginine and DNA content.
Z-138 cells were seeded in assay medium at a concentration of 50,000 cells per mL to a 384-well cell culture plate with 50 μL per well. Compound (100 nL) from 384 well source plates was added directly to 384 well cell plate. Plates were incubated at 37° C., 5% CO2 for 96 hours. After four days of incubation, 40 μL of cells from incubated plates were added to poly-D-lysine coated 384 well culture plates (BD Biosciences 356697). Plates were incubated at room temperature for 30 minutes then incubated at 37° C., 5% CO2 for 5 hours. After the incubation, 40 μL per well of 8% paraformaldehyde in PBS (16% paraformaldahyde was diluted to 8% in PBS) was added to each plate and incubated for 30 minutes. Plates were transferred to a Biotek 405 plate washer and washed 5 times with 100 μL per well of wash buffer (IX PBS with 0.1% Triton X-100 (v/v)). Next […] well of Odyssey blocking buffer were added to each plate and incubated 1 hour at room temperature. Blocking buffer was removed and 20 μL per well of primary antibody was added (symmetric di-methyl arginine diluted 1:100 in Odyssey buffer with 0.1% Tween 20 (v/v)) and plates were incubated overnight (16 hours) at 4° C. Plates were washed 5 times with 100 μL per well of wash buffer. Next 20 μL per well of secondary antibody was added (1:200 800CW goat anti-rabbit IgG (H+L) antibody, 1:1000 DRAQ5 (Biostatus limited) in Odyssey buffer with 0.1% Tween 20 (v/v)) and incubated for 1 hour at room temperature. The plates were washed 5 times with 100 μL per well wash buffer then 1 time with 100 μL per well of water. Plates were allowed to dry at room temperature then imaged on the Licor Odyssey machine which measures integrated intensity at 700 nm and 800 nm wavelengths. Both 700 and 800 channels were scanned.
First, the ratio for each well was determined by:
Each plate included fourteen control wells of DMSO only treatment (minimum inhibition) as well as fourteen control wells for maximum inhibition treated with 3 μM of a reference compound (Background wells). The average of the ratio values for each control type was calculated and used to determine the percent inhibition for each test well in the plate. Reference compound was serially diluted three-fold in DMSO for a total of nine test concentrations, beginning at 3 μM. Percent inhibition was determined and IC50 curves were generated using triplicate wells per concentration of compound.

Assay [3] has as its system Z-138 cell line. The assay is described as follows: Z-138 Proliferation Assay (Cell Titer Glo). To be noted: Homo sapiens, 120 h; Z-138 cells, 5 days incubation, ATP (Cell Titer Glo). It counts as cell-based. The text has this: Z-138 Proliferation Assay
Z-138 suspension cells were purchased from ATCC (American Type Culture Collection, Manassas, Va.). RPMI/Glutamax medium, penicillin-streptomycin, heat inactivated fetal bovine serum were purchased from Life Technologies, Grand Island, N.Y., USA. V-bottom polypropylene 384-well plates were purchased from Greiner Bio-One, Monroe, N.C., USA. Cell culture 384-well white opaque plates were purchased from Perkin Elmer, Waltham, Mass., USA. Cell-Titer Glo® was purchased from Promega Corporation, Madison, Wis., USA. SpectraMax M5 plate reader was purchased from Molecular Devices LLC, Sunnyvale, Calif., USA.
Z-138 suspension cells were maintained in growth medium (RPMI 1640 supplemented with 10% v/v heat inactivated fetal bovine serum and cultured at 37° C. under 5% CO2. Under assay conditions, cells were incubated in assay medium (RPMI 1640 supplemented with 10% v/v heat inactivated fetal bovine serum and 100 units/mL penicillin-streptomycin) at 37° C. under 5% CO2.
For the assessment of the effect of compounds on the proliferation of the Z-138 cell line, exponentially growing cells were plated in 384-well white opaque plates at a density of 10,000 cells/ml in a final volume of 50 μl of assay medium. A compound source plate was prepared by performing triplicate nine-point 3-fold serial dilutions in DMSO, beginning at 10 mM (final top concentration of compound in the assay was 20 μM and the DMSO was 0.2%). A 100 nL aliquot from the compound stock plate was added to its respective well in the cell plate. […] After addition of compounds, assay plates were incubated for 5 days at 37° C., 5% CO2, relative humidity >90%.
Cell viability was measured by quantitation of ATP present in the cell cultures, adding 35 μl of Cell Titer Glo® reagent to the cell plates. Luminescence was read in the SpectraMax M5 microplate reader. The concentration of compound inhibiting cell viability by 50% was determined using a 4-parametric fit of the normalized dose response curves.
Background: ATP-based viability assays read luminescence as a measure of living cells.

T1 sequence (O14744 with tags, fused parts or gaps): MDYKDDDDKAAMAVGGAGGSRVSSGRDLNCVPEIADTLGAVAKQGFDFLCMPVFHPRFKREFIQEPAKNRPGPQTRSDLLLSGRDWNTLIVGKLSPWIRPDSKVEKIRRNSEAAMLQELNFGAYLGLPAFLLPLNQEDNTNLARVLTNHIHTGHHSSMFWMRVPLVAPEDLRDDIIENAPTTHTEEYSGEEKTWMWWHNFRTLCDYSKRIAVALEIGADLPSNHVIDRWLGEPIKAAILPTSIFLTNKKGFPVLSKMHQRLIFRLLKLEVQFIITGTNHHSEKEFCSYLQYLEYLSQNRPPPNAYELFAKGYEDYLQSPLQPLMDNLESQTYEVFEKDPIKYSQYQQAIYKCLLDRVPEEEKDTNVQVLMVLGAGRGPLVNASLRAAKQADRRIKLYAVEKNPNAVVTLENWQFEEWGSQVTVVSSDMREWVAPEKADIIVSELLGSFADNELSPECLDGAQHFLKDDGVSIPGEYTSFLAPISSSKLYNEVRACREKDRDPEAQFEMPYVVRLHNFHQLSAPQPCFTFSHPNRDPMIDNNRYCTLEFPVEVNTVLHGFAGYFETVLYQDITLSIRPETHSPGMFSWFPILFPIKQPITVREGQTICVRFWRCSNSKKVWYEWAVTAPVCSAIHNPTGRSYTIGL
T1 sequence (Q9BQA1 with tags, fused parts or gaps partner limits assumed): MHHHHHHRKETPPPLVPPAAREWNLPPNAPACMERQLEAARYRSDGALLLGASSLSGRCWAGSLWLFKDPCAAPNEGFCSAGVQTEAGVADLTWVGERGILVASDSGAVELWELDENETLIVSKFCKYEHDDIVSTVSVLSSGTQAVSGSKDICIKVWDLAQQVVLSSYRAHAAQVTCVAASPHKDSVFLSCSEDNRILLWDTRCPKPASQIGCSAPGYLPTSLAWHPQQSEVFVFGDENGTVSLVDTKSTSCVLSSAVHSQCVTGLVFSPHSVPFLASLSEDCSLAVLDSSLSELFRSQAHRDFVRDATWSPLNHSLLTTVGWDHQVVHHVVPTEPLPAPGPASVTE

As for `O=C(NC[C@H](O)CN1CCc2[nH]ncc2C1)c1cc(NC2COC2)ncn1` [Compound 3-19], the IC50 in assay [1] is more than 10 µM. In addition, the EC50 in assay [2] is more than 1 µM.
As to `CC(=O)N1CC(Nc2cc(C(=O)NC[C@H](O)CN3CCc4nc(C)sc4C3)ncn2)C1` [Compound 1-6, (S)-6-((1-acetylazetidin-3-yl)amino)-N-(2-hydroxy-3-(2-methyl-6,7-dihydrothiazolo[5,4-c]pyridin-5(4H)-yl)propyl)pyrimidine-4-carboxamide], the IC50 in assay [1] is 1 to 10 µM. The compound also had an EC50 in assay [3] of more than 5 µM.
For `O=C(NC[C@H](O)CN1CCc2cccnc2C1)c1cc(NC2COC2)ncn1` [Compound 2-10] the same measures were 1 to 10 µM and 1 to 10 µM.
`OC(COc1cccc(CNC2CCCC2)c1)CN1CCc2ncccc2C1` (centres unmarked) [Compound 2-1, 1-(3-((cyclopentylamino)methyl)phenoxy)-3-(7,8-dihydro-1,6-naphthyridin-6(5H)-yl)propan-2-ol]: in assay [1], the half-maximal inhibitory concentration (IC50) is more than 50 µM. Also, in assay [3], the EC50 is more than 40 µM.
In the case of `OC(COc1cccc(CNC2CCCC2)c1)CN1CCc2[nH]ncc2C1` (centres unmarked) [Compound 3-14], the IC50 in assay [1] is more than 50 µM. This compound yielded an EC50 in assay [3] of more than 40 µM.
For `OC(COc1cccc(CNC2CCCC2)c1)CN1CCc2[nH]nc(-c3ccccc3)c2C1` (centres unmarked) [Compound 3-9, 1-(3-((cyclopentylamino)methyl)phenoxy)-3-(3-phenyl-6,7-dihydro-1H-pyrazolo[4,3-c]pyridin-5(4H)-yl)propan-2-ol] the same measures were 10 to 50 µM and 10 to 50 µM.
With `O=C(NC[C@H](O)CN1CCc2cn[nH]c2C1)c1cc(NC2COC2)ncn1` [Compound 3-39], the IC50 in assay [1] was more than 10 µM. Moreover, the EC50 in assay [3] was more than 5 µM.
